The record followed here is US20150198597A1, “Method for monitoring PARP activity in cells by PARP activation” (Stichting Het Nederlands Kanker Instituut, priority 2012, published 2015).

This assay deals with PARP. Conditions: PBMCs; H2O2 at 0, 12.5, 50, 200 and 800 μM; treated and maintained on ice (0-4° Celsius) for 60 minutes; FIG. 3B.

Procedure: Cells were treated on ice (at 0-4° Celsius) and cells were maintained on ice (at 0-4° Celsius) for 60 minutes. Cells were immediately lysed thereafter and PAR levels were measured by using the Trevigen® PARP Pharmacodynamic assay II. The PAR levels (y-axis) are plotted against the H2O2 concentration (x-axis).
The assay was used to quantify the amount of PAR in peripheral blood mononuclear cells (PBMC).
Peripheral Blood Mononuclear Cells (PBMCs) were prepared by drawing 8 ml blood from a subject in a BD vacutainer CPT-citrate tube (RT) at the clinic. Invert the tubes three times to mix the anti-coagulant (1 ml) with the blood and keep the tube at room temperature (RT). Centrifuge for 25 minutes at 1500×g at RT, and invert the tubes three times. Pour the upper layer into a 50 ml Falcon tube on ice and incubate on ice for 5 minutes. Adjust the total volume to 50 ml with ice-cold PBS and centrifuge 10 minutes at 330×g at 4° Celsius. Decant the supernatant and place the tube inverted on filter paper for 2 seconds. Re-suspend the pellet in 10 ml ice-cold PBS. Count the PBMCs with a hema-cytometer and centrifuge 10 minutes at 330×g at 4° Celsius. Re-suspend the pellet at 2×10exp6 PBMC/500 μl in PBS and transfer to a pre-chilled 2.0 ml tube on ice.
For example, cells are suspended at 2×10E6 PBMC/500 μl culture PBS. […]

As for `OO` [H2O2, hydrogen peroxide], the PAR levels result was “Higher PAR levels were found with increasing H2O2 treatment concentration”.
